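Grown in 96-well plates, cells were treated for 48 hours with each compound at five concentrations. Insufficient inhibition: endpoint recorded as highest concentration tested. At the GI50, growth is halved. TGI: concentration producing complete growth inhibition.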
How the values were obtained:
Assay in all cases: NCI tumour cell line growth inhibition, 48 h
IGROV1 ovarian = tested on: IGROV1 ovarian
HL-60(TB) leukemia = tested on: HL-60(TB) leukemia
SN12C renal = tested on: SN12C renal
ACHN renal = tested on: ACHN renal
UACC-257 melanoma = tested on: UACC-257 melanoma
A549 NSCLC = tested on: A549 NSCLC
SW-620 colon = tested on: SW-620 colon
HOP-92 NSCLC = tested on: HOP-92 NSCLC
U251 CNS = tested on: U251 CNS
TK-10 renal = tested on: TK-10 renal

| SMILES | GI50 (IGROV1 ovarian) | TGI (IGROV1 ovarian) | GI50 (HL-60(TB) leukemia) | TGI (HL-60(TB) leukemia) | GI50 (SN12C renal) | TGI (SN12C renal) | GI50 (ACHN renal) | TGI (ACHN renal) | GI50 (UACC-257 melanoma) | TGI (UACC-257 melanoma) | GI50 (A549 NSCLC) | TGI (A549 NSCLC) | GI50 (SW-620 colon) | TGI (SW-620 colon) | GI50 (HOP-92 NSCLC) | TGI (HOP-92 NSCLC) | GI50 (U251 CNS) | TGI (U251 CNS) | GI50 (TK-10 renal) | TGI (TK-10 renal) |
| --- | --- | --- | --- | --- | --- | --- | --- | --- | --- | --- | --- | --- | --- | --- | --- | --- | --- | --- | --- | --- |
| COc1ccc(C(=O)c2cc(C)c(OC)c(C)c2)cc1OC(=O)CCl | 0.0352 µM | > 100 µM | < 10 nM | < 0.01 µM | < 10 nM | > 100 µM | < 0.01 µM | 77.5 µM | 19 µM | > 100 µM | 0.0845 µM | > 100 µM | < 10 nM | > 100 µM | 12.4 µM | > 96.1 µM | < 10 nM | > 100 µM | 34.7 µM | > 100 µM |
| C=C1C(=O)O[C@H]2[C@H]1CC/C(COC(=O)NCCCCNC(=O)OC/C1=C/CC[C@@]3(C)O[C@H]3[C@H]3OC(=O)C(=C)[C@@H]3CC1)=C\CC[C@@]1(C)O[C@@H]21 | 3.32 µM | 12.4 µM | 256 nM | 1.08 µM | 2750 nM | 10.1 µM | 3.44 µM | 12.9 µM | 1.68 µM | 4.99 µM | 8.01 µM | 23.1 µM | 586 nM | 2.04 µM | 0.287 µM | 1.06 µM | 2940 nM | 9.83 µM | 1.61 µM | 4.12 µM |
| COc1ccc(C2=C(Cl)c3cc(OC)c(OC)cc3C2Cl)cc1 (stereo not given) | – | 35.7 µM | – | 18.1 µM | – | 30.5 µM | – | 30.6 µM | – | 39.6 µM | – | 36.5 µM | – | 32.9 µM | – | 30.3 µM | – | 26.6 µM | – | 47.5 µM |
| COc1c2c(cc3c1OCO3)[C@]13C=C[C@H](OC)C[C@H]1N(C2)CC3O (stereo not given in full) | – | > 100 µM | – | > 100 µM | – | > 100 µM | – | > 100 µM | – | > 100 µM | – | > 100 µM | – | > 100 µM | – | > 100 µM | – | > 100 µM | – | > 100 µM |
| CCCCCCCCCCCCCCCC(=O)OCC(C[As](=O)(O)O)OC(=O)CCCCCCCCCCCCCCC (stereo not given) | – | > 100 µM | – | > 100 µM | – | > 100 µM | – | > 100 µM | – | > 100 µM | – | > 100 µM | – | > 100 µM | – | > 100 µM | – | > 100 µM | – | > 100 µM |
| O=C1c2cccnc2-c2nc(-c3ccc(Cl)cc3)cc3c2c1nc1ccccc13 | 32.3 µM | > 100 µM | 37600 nM | > 100 µM | 24000 nM | > 100 µM | 15.9 µM | 33.7 µM | 57.7 µM | > 100 µM | 35.6 µM | > 100 µM | 28600 nM | > 100 µM | 22.9 µM | 74.1 µM | 9240 nM | 37.1 µM | 24.6 µM | > 100 µM |
| CN(Cc1ccccc1)C(=O)c1ccccc1C(=O)O | – | > 100 µM | – | > 100 µM | – | > 100 µM | – | > 100 µM | – | > 100 µM | – | > 100 µM | – | > 100 µM | – | > 100 µM | – | > 100 µM | – | > 100 µM |
